According to US20250066320A1, “Active Ingredients with Sialagogue and Tingling/Fizzy Effect, and Preparations Containing Same” (Symrise AG, priority 2021, published 2025):

Experiment: Sensory tasting of the active ingredients (mouth-watering and/or tingling effect) by a trained expert panel
Type: in vivo, human
Details: for Sensory Rating (profile in words): 3 to 7 tasters; for Sensory Rating: intensity of mouth-watering and/or tingling/fizzing effect (figure in brackets): 50 ppm, scale of 1 (very weak) to 10 (very strong)
Method: The sensory tasting of the active ingredients according to the invention was carried out as follows: • (1) The active ingredients were each prepared in a 5% sugar solution or in an unflavored standard fondant mass. Fondant is the name for a soft, pasty sugar mass that is used to make various confectionery products. Fondant is made from water and sucrose as well as glucose syrup, invert sugar cream and/or sugar alcohols (e.g., sorbitol or mannitol). The mixture is boiled and then processed into a soft paste by kneading it vigorously and cooling it quickly. • (2) The concentration of the active ingredients was 25 or 50 ppm. • (3) The test samples were tested under practical conditions by a panel of experts with sensory training. For tasting, 3 to 7 tasters each rinsed their mouths with approx. 5 ml of the sugar solution and spat the solution out again. The mouth-watering and/or tingling effect was assessed on a scale of 1 (very weak) to 10 (very strong) and the profile evaluated.

[1] = 50 ppm in 5% sugar solution or unflavored fondant mass
[2] = 25 ppm in 5% sugar solution or unflavored fondant mass

Compound | Sensory Rating (profile in words) [1] | Sensory Rating: intensity of mouth-watering and/or tingling/fizzing effect (figure in brackets) | Sensory Rating (profile in words) [2]
COc1ccc(C(=O)N2CCCN(CCc3ccccc3)CC2)cc1OC [Compound 32, (3,4-Dimethoxy-phenyl)-[4-(2-phenyl-ethyl)-1,4-diazepan-1-yl]methanone] | very slightly tingling/ fizzing (1), slightly metallic taste | very slightly tingling/ fizzing (1), slightly metallic taste | 
COc1ccc(C(=O)N2CCN(Cc3ccccc3)CC2)cc1OC [Compound 33, (4-benzylpiperazin-1-yl)-(3,4-dimethoxy-phenyl)methanone] | very slightly tingling/ fizzing (1-2), slightly like marzipan | very slightly tingling/ fizzing (1-2), slightly like marzipan | 
COc1ccc(C(=O)N2CCN(CCCCc3ccccc3)CC2)cc1 [Compound 34, (4-Methoxy-phenyl)-[4-(4-phenyl-butyl)piperazin-1-yl]methanone] | strongly mouth-watering/ tingling/fizzing | 6 | tingling/ fizzing and mouth-watering effect, neutral taste
COc1ccc(C(=O)N2CCN(CCc3ccccc3)CC2)cc1 [Compound 35, (4-Methoxy-phenyl)-[4-(2-phenyl-ethyl)piperazin-1-yl]methanone] | slightly tingling/ fizzing (3) and mouth-watering, Acid taste, Honey note | 3 | slightly mouth-watering
COc1ccc(C(=O)N2CCN(CCC3CCCCC3)CC2)cc1 [Compound 36, [4-(2-cyclo-hexylethyl)piperazin-1-yl]-(4-methoxy-phenyl) methanone] | slightly tingling/fizzing (3), metallic taste | slightly tingling/fizzing (3), metallic taste | 
COc1ccc(C(=O)N2CCC(CCCc3ccccc3)CC2)cc1 [Compound 37, (4-Methoxy-phenyl)-[4-(3-phenyl-propyl)-1-piperidyl]methanone] | slightly tingling/ fizzing (2), light fruity note | slightly tingling/ fizzing (2), light fruity note | 
COc1ccc(C(=O)N2CCN(CCCc3ccccc3)CC2)cc1 [Compound 38, (4-Methoxy-phenyl)-[4-(3-phenylpropyl)piperazin-1-yl] methanone] | remarkably tingling/fizzing (6), numbing, Increasing effect over time | 6 | slightly mouth-watering, anesthetic
COc1ccc(C(=O)N2CCN(Cc3ccccc3)CC2)cc1 [Compound 40, (4-benzylpiperazin-1-yl)-(4-methoxy-phenyl)methanone] | mouth-watering, neutral, slightly tingling/ fizzing (1-2) | mouth-watering, neutral, slightly tingling/ fizzing (1-2) | 
CCOc1ccc(C(=O)N2CCN(CCCCc3ccccc3)CC2)cc1 [Compound 41, (4-ethoxyphenyl)-[4-(4-phenyl-butyl)piperazin-1-yl]methanone] | strong mouth- watering effect (8), long-lasting, Slightly hot | 8 | metallic, mouth- watering effect
CCOc1ccc(C(=O)N2CCN(C/C=C/c3ccccc3)CC2)cc1 [Compound 42, [4-[(E)-cinnamyl]piperazin-1-yl]-(4-ethoxy-phenyl)methanone] | slightly tingling (3-4), and mouth- watering, fruity, creamy, Vanilla flavor | slightly tingling (3-4), and mouth- watering, fruity, creamy, Vanilla flavor | 
